A short description of data set [1]: Pharmacokinetic profile in mice after oral gavage. The class given is in vivo, mouse. To be noted: mouse; fasted male Hilltop mice, 10 mg/kg oral gavage, plasma; read-out: Cmax. The gist of the method: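 Fasted 8-week male Hilltop mice given 10 mg/kg orally in 20% PEG400/80% 0.5% CMC + 0.25% Tween-80. EDTA plasma sampled 0-4 h, measured by LC-MS/MS (MRM, positive ion); Cmax and AUC derived non-compartmentally, values being means of three mice.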

Data set [2] addresses T1, human TGR5 receptor (Homo sapiens, UniProt Q8TDU6).
T1 construct: host or cells: CHO-K1 (hTGR5-CHO)
T1 sequence (Q8TDU6 1-330): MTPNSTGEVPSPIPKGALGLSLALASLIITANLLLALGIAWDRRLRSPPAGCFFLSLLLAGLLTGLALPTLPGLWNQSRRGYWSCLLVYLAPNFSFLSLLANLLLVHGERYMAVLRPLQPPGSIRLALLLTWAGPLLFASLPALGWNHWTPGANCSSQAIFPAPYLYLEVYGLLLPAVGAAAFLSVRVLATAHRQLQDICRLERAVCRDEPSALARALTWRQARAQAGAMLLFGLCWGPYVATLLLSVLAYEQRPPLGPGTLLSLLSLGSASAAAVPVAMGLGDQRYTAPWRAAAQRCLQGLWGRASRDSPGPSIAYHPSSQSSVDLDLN
The data set is described as follows: Human TGR5 cAMP production assay (hTGR5-CHO cells, DiscoveRx cAMP XS+ kit). In kind it is cell-based. To be noted: luminescent cAMP assay, read-out: Human TGR5 Lum. cAMP Activity (EC50). The method, boiled down: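 CHO-K1 cells stably expressing hTGR5, in PBS with IBMX and cAMP antibody, treated with half-log compound dilutions for 1 h at room temperature. cAMP measured by enzyme-fragment complementation luminescence after overnight detection; EC50 values reported.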

Broadly, the Cmax is the highest concentration seen after dosing. By EC50 is commonly meant the concentration giving half of the maximal effect. With `N#Cc1ccc(CCNC(=O)[C@@H]2CCCN2c2cc(N3CCC(CCCC(=O)NCCC(=O)O)CC3)nc(C(F)(F)F)n2)cc1` [Compound 104, (S)-3-(4-(1-(6-(2-((4-cyanophenethyl)carbamoyl)pyrrolidin-1-yl)-2-(trifluoromethyl)pyrimidin-4-yl)-piperidin-4-yl)butanamido)-propanoic acid], in data set [1], the Cmax was 8.9 ng/mL. Moreover, the 50% effective concentration (EC50) in data set [2] was less than 100 nM.
The corresponding values for `N#Cc1ccc(CCNC(=O)[C@@H]2CCCN2c2cc(N3CCC(CCCC(=O)NCCS(N)(=O)=O)CC3)nc(C(F)(F)F)n2)cc1` [Compound 62, (S)-N-(4-cyanophenethyl)-1-(6-(4-(4-oxo-4-((2-sulfamoylethyl)amino)butyl)piperidin-1-yl)-2-(trifluoromethyl)pyrimidin-4-yl)pyrrolidine-2-carboxamide] are 33 ng/mL and less than 100 nM.
Consider `N#Cc1ccc(CCNC(=O)[C@@H]2CCCN2c2cc(N3CCC(CCCC(=O)NCS(=O)(=O)O)CC3)cc(C(F)(F)F)n2)cc1` [Compound 198, (S)-(4-(1-(2-(2-((4-cyanophenethyl)carbamoyl)pyrrolidin-1-yl)-6-(trifluoromethyl)pyridin-4-yl)piperidin-4-yl)butanamido)methanesulfonic acid], for which, in data set [1], the Cmax turned out to be 6.8 ng/mL. Further, the EC50 in data set [2] is less than 100 nM.
The corresponding values for `N#Cc1ccc(CCNC(=O)[C@@H]2CCCN2c2cc(N3CCC(CCCC(=O)NCCC(=O)NC(CO)(CO)CO)CC3)nc(C(F)(F)F)n2)cc1` [Compound 109, (S)—N-(4-cyanophenethyl)-1-(6-(4-(4-((3-((1,3-dihydroxy-2-(hydroxymethyl)propan-2-yl)amino)-3-oxopropyl)amino)-4-oxobutyl)piperidin-1-yl)-2-(trifluoromethyl)-pyrimidin-4-yl)pyrrolidine-2-carboxamide] are 3.2 ng/mL and less than 100 nM.
On the same counts, the results for `O=C(O)CNS(=O)(=O)CCNC(=O)CCCC1CCN(c2cc(N3CCC[C@H]3C(=O)NCCc3ccc(C(F)(F)F)cc3)nc(C(F)(F)F)n2)CC1` [Compound 114, (S)-2-(2-(4-(1-(2-(trifluoromethyl)-6-(2-((4-(trifluoromethyl)phenethyl)-carbamoyl)-pyrrolidin-1-yl)pyrimidin-4-yl)piperidin-4-yl)butanamido)ethyl-sulfonamido)acetic acid] are 4.8 ng/mL and less than 100 nM.
The corresponding values for `N#Cc1ccc(CCNC(=O)[C@@H]2CCN2c2cc(N3CCC(CO)CC3)nc(C(F)(F)F)n2)cc1` [Compound 219, (S)—N-(4-cyanophenethyl)-1-(6-(4-(hydroxymethyl)piperidin-1-yl)-2-(trifluoromethyl)pyrimidin-4-yl)azetidine-2-carboxamide] are 75 ng/mL and less than 100 nM.
For the compound `N#Cc1ccc(CCNC(=O)[C@@H]2CCN2c2cc(N3CCC(CCCC(=O)O)CC3)nc(C(F)(F)F)n2)cc1` [Compound 231, (S)-4-(1-(6-(2-((4-cyanophenethyl)carbamoyl)azetidin-1-yl)-2-(trifluoromethyl)pyrimidin-4-yl)piperidin-4-yl)butanoic acid], in data set [1], the Cmax stood at 28 ng/mL. In addition, the EC50 in data set [2] is less than 100 nM.
The corresponding values for `N#Cc1ccc(CCNC(=O)[C@@H]2CCN2c2cc(N3CCC(CCNC(=O)NCCC(=O)O)CC3)nc(C(F)(F)F)n2)cc1` [Compound 268, (S)-3-(3-(2-(1-(6-(2-((4-cyanophenethyl)carbamoyl)azetidin-1-yl)-2-(trifluoromethyl)pyrimidin-4-yl)piperidin-4-yl)ethyl)ureido)propanoic acid] are 7.7 ng/mL and less than 100 nM.
The corresponding values for `O=C(O)CC[C@@H](NC(=O)CCCC1CCN(c2cc(N3CC[C@H]3C(=O)NCCc3ccc(C(F)(F)F)cc3)nc(C(F)(F)F)n2)CC1)C(=O)O` [Compound 294, (R)-2-(4-(1-(2-(trifluoromethyl)-6-((S)-2-((4-(trifluoromethyl)-phenethyl)carbamoyl)azetidin-1-yl)pyrimidin-4-yl)piperidin-4-yl)butanamido)pentanedioic acid] are 1.7 ng/mL and less than 100 nM.
On the same counts, the results for `N#Cc1ccc(CCNC(=O)[C@@H]2CCCN2c2cc(N3CCC(CCCC(=O)N[C@@H](CCCNC(=N)N)C(=O)N[C@@H](CCCNC(=N)N)C(=O)O)CC3)cc(C(F)(F)F)n2)cc1` [Compound 202, (S)-2-((S)-2-(4-(1-(2-((S)-2-((4-cyanophenethyl)carbamoyl)pyrrolidin-1-yl)-6-(trifluoromethyl)pyridin-4-yl)piperidin-4-yl)butanamido)-5-guanidinopentanamido)-5-guanidinopentanoic acid] are less than 0.1 ng/mL and less than 100 nM.
With `N#Cc1ccc(CCNC(=O)[C@@H]2CCCN2c2cc(N3CCC(CCCNC(=O)NCCS(N)(=O)=O)CC3)nc(C(F)(F)F)n2)cc1` [Compound 120, (S)-N-(4-cyanophenethyl)-1-(6-(4-(3-(3-(2-sulfamoylethyl)ureido)propyl)piperidin-1-yl)-2-(trifluoromethyl)pyrimidin-4-yl)pyrrolidine-2-carboxamide], in data set [1], the Cmax worked out at 2.6 ng/mL. Also, in data set [2], the concentration giving a half-maximal response (EC50) is less than 100 nM.
On the same counts, the results for `N#Cc1ccc(CCNC(=O)[C@@H]2CCCN2c2cc(N3CCC(CCCNC(=O)NCC(=O)O)CC3)nc(C(F)(F)F)n2)cc1` [Compound 121, (S)-2-(3-(3-(1-(6-(2-((4-cyanophenethyl)carbamoyl)pyrrolidin-1-yl)-2-(trifluoromethyl)pyrimidin-4-yl)piperidin-4-yl)propyl)ureido)acetic acid] are 235 ng/mL and 100 to 999 nM.
Take `N#Cc1ccc(CCNC(=O)[C@@H]2CCCN2c2cc(N3CCC(CCCC(=O)NCC(=O)O)CC3)nc(C(F)(F)F)n2)cc1` [Compound 103, (S)-2-(4-(1-(6-(2-((4-cyanophenethyl)carbamoyl)pyrrolidin-1-yl)-2-(trifluoromethyl)pyrimidin-4-yl)piperidin-4-yl)butanamido)acetic acid]: the highest concentration (Cmax) in data set [1] amounted to 9.3 ng/mL. In addition, the concentration giving a half-maximal response (EC50) in data set [2] was less than 100 nM.
Regarding `N#Cc1ccc(CCNC(=O)[C@@H]2CCCN(c3cc(N4CCC(CCNC(=O)NCCC(=O)O)CC4)nc(C(F)(F)F)n3)C2)cc1` [Compound 347, (R)-3-(3-(2-(1-(6-(3-((4-cyanophenethyl)carbamoyl)piperidin-1-yl)-2-(trifluoromethyl)pyrimidin-4-yl)piperidin-4-yl)ethyl)ureido)propanoic acid], in data set [1], the Cmax was 30 ng/mL. The half-maximal effective concentration (EC50) in data set [2] is less than 100 nM.
Take `N#Cc1ccc(CCNC(=O)[C@@H]2CCCN2c2cc(-c3ccc(CO)cc3)cc(C(F)(F)F)n2)cc1` [Compound 204, (S)—N-(4-cyanophenethyl)-1-(4-(4-(hydroxymethyl)phenyl)-6-(trifluoromethyl)pyridin-2-yl)pyrrolidine-2-carboxamide]: the Cmax in data set [1] worked out at 4.4 ng/mL. Also, in data set [2], the concentration giving a half-maximal response (EC50) was less than 100 nM.
The corresponding values for `N#Cc1ccc(CCNC(=O)[C@@H]2CCN2c2cc(N3CCC(CCCC(=O)NCCCCNC(=N)N)CC3)nc(C(F)(F)F)n2)cc1` [Compound 283, (S)-N-(4-cyanophenethyl)-1-(6-(4-(4-((4-guanidinobutyl)amino)-4-oxobutyl)piperidin-1-yl)-2-(trifluoromethyl)pyrimidin-4-yl)azetidine-2-carboxamide] are 2.7 ng/mL and less than 100 nM.

Values taken from US10654834B2 (Venenum Biodesign, LLC, priority 2016, dated 2020).
